Reference: paper PMC11532403 (Signal Transduction and Targeted Therapy, 2024)
Several values for one entry are separate records, joined by “and”; a condition that tells them apart may be missing. Identical values can stand only once.

System: RET-altered solid tumors
Experiment: Phase 1 trial: anti-tumor efficacy (RECIST 1.1)
Format: in vivo, human
Protocol: Radiologic tumor assessments were conducted by computed tomography (CT) or magnetic resonance imaging (MRI) of brain, chest, abdomen, and pelvis at baseline, 4 weeks for the first tumor assessment, then every 8 weeks (± 7 days) for 1 year, and every 12 weeks (± 7 days) thereafter. MTC patients were longitudinally monitored for serum calcitonin and carcinoembryonic antigen (CEA) levels.

[1] = All patients, 160 mg BID (n = 95)
[2] = All patients, 200 mg BID (n = 10)
[3] = All patients, all doses (n = 116)
[4] = Previously treated, 160 mg BID (n = 58)
[5] = Previously treated, 200 mg BID (n = 8)
[6] = Previously treated, all doses (n = 76)
[7] = RP2D 160 mg BID, MTC, all (n = 23)
[8] = RP2D 160 mg BID, NSCLC, all (n = 64)
[9] = RP2D 160 mg BID, PTC, all (n = 7)
[10] = RP2D, MTC, previously treated (n = 15)
[11] = RP2D, MTC, treatment-naïve (n = 8)
[12] = RP2D, NSCLC, previously treated (n = 36)
[13] = RP2D, NSCLC, treatment-naïve (n = 28)
[14] = RP2D, PTC, previously treated (n = 6)

For `COc1ccc(CN2C3CC2CN(c2ccc(-c4cc(N5CC(C)(O)C5)cn5ncc(C#N)c45)cn2)C3)cn1` [SY-5007, 6-(3-hydroxy-3-methylazetidin-1-yl)-4-(6-(6-((6-methoxypyridin-3-yl)methyl)-3,6-diazabicyclo[3.1.1]heptan-3-yl)pyridin-3-yl)pyrazolo[1,5-a]pyridine-3-carbonitrile], the “Patients with target tumor shrinkage” value (111/116) was 95.7%, the Progressive disease (All patients, 20 mg QD to 120 mg BID cohorts) was 0 (0.0) n (%) and the “DCR (95% CI)” value (All patients, 20 mg QD to 120 mg BID cohorts, 20 mg once daily) was 100.0 (2.5–100.0) %. The “Median TTR (95% CI)” value (All patients, 20 mg QD to 120 mg BID cohorts, 20 mg twice daily) was 6.73 (NE-NE) months, the “DCR (95% CI)” value (All patients, 20 mg QD to 120 mg BID cohorts, 40 mg twice daily) was 100.0 (29.2–100.0) % and the “Median TTR (95% CI)” value (All patients, 20 mg QD to 120 mg BID cohorts, 120 mg twice daily) was 8.37 (1.18-NE) months. The “DCR (95% CI)” value [1] was 94.7 (88.1–98.3) %, the “Median DoR (95% CI)” value [1] was 13.0 (12.8-NE) months and the “Median PFS (95% CI)” value [1] was 15.4 (13.8-NE) months. For the same compound, the “Median TTR (95% CI)” value [1] was 2.79 (2.75–4.63) months, the “ORR (95% CI)” value [1] was 58.9 (48.4–68.9) % and the Partial response [1] was 56 (58.9) n (%). The Progressive disease [1] was 5 (5.3) n (%), the Stable disease [1] was 34 (35.8) n (%) and the “DCR (95% CI)” value [2] was 100.0 (69.2–100.0) %. For the same compound, the “Median TTR (95% CI)” value [2] was 1.14 (0.91-NE) months, the “ORR (95% CI)” value [2] was 60.0 (26.2–87.8) % and the Partial response [2] was 6 (60.0) n (%). The Progressive disease [2] was 0 (0.0) n (%), the Stable disease [2] was 4 (40.0) n (%) and the “DCR (95% CI)” value [3] was 95.7 (90.2–98.6) %. The “Median DoR (95% CI)” value [3] was 19.9 months and 19.9 (12.8–NE) months, the “Median PFS (95% CI)” value [3] was 21.1 months and 21.1 (13.8–NE) months and the “Median TTR (95% CI)” value [3] was 2.82 (2.75–4.66) months. For the same compound, the “ORR (95% CI)” value [3] was 57.8 (48.2–66.9) %, the Partial response [3] was 67 (57.8) n (%) and the Progressive disease [3] was 5 (4.3) n (%). The Stable disease [3] was 44 (37.9) n (%), the “Estimated 12-month PFS rate” value (MTC at RP2D) was 85.2% and the “Estimated 6-month PFS rate” value (NSCLC at 160 mg BID) was 89.6%. For the same compound, the “Estimated 12-month PFS rate” value (NSCLC at 160 mg BID) was 67.5%, the “Estimated 12-month PFS rate” value (PTC at RP2D) was 100.0% and the “Median PFS (95% CI)” value (Previously treated, 20 mg QD (n = 1)) was 4.83 (NE-NE) months. For the same compound, the Progressive disease (Previously treated, 20 mg QD to 120 mg BID cohorts) was 0 (0.0) n (%), the “DCR (95% CI)” value (Previously treated, 20 mg QD to 120 mg BID cohorts, 20 mg once daily) was 100.0 (2.5–100.0) % and the “Median TTR (95% CI)” value (Previously treated, 20 mg QD to 120 mg BID cohorts, 20 mg twice daily) was 6.73 (NE-NE) months. The “DCR (95% CI)” value (Previously treated, 20 mg QD to 120 mg BID cohorts, 40 mg twice daily) was 100.0 (15.8–100.0) %, the “DCR (95% CI)” value (Previously treated, 20 mg QD to 120 mg BID cohorts, 80 mg twice daily) was 100.0 (29.2–100.0) % and the “Median TTR (95% CI)” value (Previously treated, 20 mg QD to 120 mg BID cohorts, 120 mg twice daily) was 8.37 (1.18-NE) months. The “DCR (95% CI)” value [4] was 94.8 (85.6–98.9) %, the “Median DoR (95% CI)” value [4] was 13.0 (9.23-NE) months and the “Median PFS (95% CI)” value [4] was 15.4 (13.8-NE) months. The “Median TTR (95% CI)” value [4] was 4.56 (2.75-NE) months, the “ORR (95% CI)” value [4] was 51.7 (38.2–65.0) % and the Partial response [4] was 30 (51.7) n (%). The Progressive disease [4] was 3 (5.2) n (%), the Stable disease [4] was 25 (43.1) n (%) and the “DCR (95% CI)” value [5] was 100.0 (63.1–100.0) %. For the same compound, the “Median TTR (95% CI)” value [5] was 3.15 (0.91-NE) months, the “ORR (95% CI)” value [5] was 50.0 (15.7–84.3) % and the Partial response [5] was 4 (50.0) n (%). The Progressive disease [5] was 0 (0.0) n (%), the Stable disease [5] was 4 (50.0) n (%) and the “DCR (95% CI)” value [6] was 96.1 (88.9–99.2) %. For the same compound, the “Median DoR (95% CI)” value [6] was 19.9 (12.8-NE) months, the “Median TTR (95% CI)” value [6] was 4.63 (2.75-NE) months and the “ORR (95% CI)” value [6] was 51.3 (39.6–63.0) %. For the same compound, the Partial response [6] was 39 (51.3) n (%), the Progressive disease [6] was 3 (3.9) n (%) and the Stable disease [6] was 34 (44.7) n (%). The “Patients with progression or death” value (RET fusion-positive NSCLC at 160 mg BID) was 26.6%, the “DCR (95% CI)” value [7] was 91.3 (72.0-98.9) % and the “Median TTR (95% CI)” value [7] was 4.66 (2.75-NE) months. The “ORR (95% CI)” value [7] was 52.2 (30.6-73.2) %, the Partial response [7] was 12 (52.2) n (%) and the Progressive disease [7] was 2 (8.7) n (%). For the same compound, the Stable disease [7] was 9 (39.1) n (%), the “DCR (95% CI)” value [8] was 96.9 (89.2-99.6) % and the “Median DoR (95% CI)” value [8] was 13.0 months and 13.0 (9.26-NE) months. The “Median PFS (95% CI)” value [8] was 15.4 months and 15.4 (10.1-NE) months, the “Median TTR (95% CI)” value [8] was 2.75 (1.01-2.89) months and the “ORR (95% CI)” value [8] was 64.1 (51.1-75.7) %. For the same compound, the Partial response [8] was 41 (64.1) n (%), the Progressive disease [8] was 2 (3.1) n (%) and the Stable disease [8] was 21 (32.8) n (%). The “DCR (95% CI)” value [9] was 100.0 (59.0-100.0) %, the “ORR (95% CI)” value [9] was 42.9 (9.9-81.6) % and the Partial response [9] was 3 (42.9) n (%). For the same compound, the Progressive disease [9] was 0 (0.0) n (%), the Stable disease [9] was 4 (57.1) n (%) and the “DCR (95% CI)” value [10] was 100.0 (78.2-100.0) %. For the same compound, the “ORR (95% CI)” value [10] was 40.0 (16.3-67.7) %, the Partial response [10] was 6 (40.0) n (%) and the Progressive disease [10] was 0 (0.0) n (%). For the same compound, the Stable disease [10] was 9 (60.0) n (%), the “DCR (95% CI)” value [11] was 75.0 (34.9-96.8) % and the “Median TTR (95% CI)” value [11] was 2.75 (0.85-NE) months. For the same compound, the “ORR (95% CI)” value [11] was 75.0 (34.9-96.8) %, the Partial response [11] was 6 (75.0) n (%) and the Progressive disease [11] was 2 (25.0) n (%). The Stable disease [11] was 0 (0.0) n (%), the “DCR (95% CI)” value [12] was 94.4 (81.3-99.3) % and the “Median DoR (95% CI)” value [12] was 13.0 (9.20-NE) months. For the same compound, the “Median PFS (95% CI)” value [12] was 13.8 (10.1-NE) months, the “Median TTR (95% CI)” value [12] was 2.75 (0.98-NE) months and the “ORR (95% CI)” value [12] was 58.3 (40.8-74.5) %. For the same compound, the Partial response [12] was 21 (58.3) n (%), the Progressive disease [12] was 2 (5.6) n (%) and the Stable disease [12] was 13 (36.1) n (%). For the same compound, the “DCR (95% CI)” value [13] was 100.0 (87.7-100.0) %, the “Median DoR (95% CI)” value [13] was 14.5 (9.26-NE) months and the “Median PFS (95% CI)” value [13] was 15.5 (9.23-NE) months. For the same compound, the “Median TTR (95% CI)” value [13] was 1.11 (0.91-3.15) months, the “ORR (95% CI)” value [13] was 71.4 (51.3-86.8) % and the Partial response [13] was 20 (71.4) n (%). For the same compound, the Progressive disease [13] was 0 (0.0) n (%), the Stable disease [13] was 8 (28.6) n (%) and the “DCR (95% CI)” value [14] was 100.0 (54.1-100.0) %. The “ORR (95% CI)” value [14] was 50.0 (11.8-88.2) %, the Partial response [14] was 3 (50.0) n (%) and the Progressive disease [14] was 0 (0.0) n (%). The Stable disease [14] was 3 (50.0) n (%) and the “DCR (95% CI)” value (RP2D, PTC, treatment-naïve (n = 1)) was 100.0 (2.5-100.0) %.
